Results on one molecule are retold here after patent US20170292066A1, “Synthetic Acid Compositions Alternatives to Conventional Acids in the Oil and Gas Industry” (Fluid Energy Group Ltd., priority 2014, published 2017).

The structures appear in SMILES notation.

A short description of the data set: Biodegradability.

With `Cl.NC(N)=O` [urea hydrochloride, Urea Hydrochloride], the Biodegradability entry is given as “maintain the same biodegradability function”.
